SMILES strings stand for the structures.

The subject of one series is Leptochloa chinensis. The series can be described thus: Greenhouse herbicidal activity and crop safety comparison (Test Example 2). Format: in vivo. Particulars: Rate 150 g/ha. An excerpt:
(§1) Pre-emergence: Seeds of gramineous weeds (Echinochloa crusgalli, Echinochloa crusgalli var. zelayensis, Echinochloa phyllopogon, Eleusine indica, Digitaria sanguinalis, Leptochloa chinensis, Setaria viridis, Alopecurus japonicus Steud, Beckmannia syzigachne, Polypogon fugax, Alopecurus aequalis, Lolium multiflorum, Poa annua, Aegilops tataschii, Avena fatua, Alopecurus myosuroides, Bromus japonicus), broadleaf weeds (Eclipta prostrata, Amaranthus retroflexus, Rorippa indica, Myosoton aquaticum, Veronica didyma, Galium aparine, Solanum nigrum, Xanthium sibiricum, Conyza canadensis, Sesbania cannabina, Sagittaria trifolia), and Cyperus iria (Cyperus iria, Scirpus juncoides, Cyperus difformis, etc.) were sown in plastic pots (7 cm diameter) with nutrient soil and bottom holes. Crop seeds (including Oryza sativa subsp. indica, Oryza sativa subsp. japonica, Oryza sativa L. var. Glutinosa matsum, Triticum aestivum, Zea mays, Sorghum bicolor, Setaria italica, Glycine max, Gossypium hirsutum, Brassica napus, Arachis hypogaea) were sown in plastic pots (10 cm diameter) with nutrient soil and bottom holes. After sowing, the seeds were lightly covered with soil, and the soil was moistened via bottom water absorption. The pots were placed in a constant-temperature light-controlled growth chamber for 24 hours before soil spraying. Spraying was performed using a 3WP-2000 walking-type spray tower (produced by the Nanjing Agricultural Mechanization Institute, Ministry of Agriculture) with a spindle speed of 96 mm/r, spray height of 300 mm, effective spray width of 350 mm, spray area of 0.35 m^2, and nozzle flow rate of 390 mL/min.
(§2) After treatment, the test materials were air-dried naturally in the laboratory and then transferred to the growth chamber. Results were assessed 14-30 days later.
(§3) Post-emergence: Seeds of gramineous weeds (Echinochloa crusgalli, Echinochloa crusgalli var. zelayensis, Echinochloa phyllopogon, Eleusine indica, Digitaria sanguinalis, Leptochloa chinensis, Setaria viridis, Alopecurus japonicus Steud, Beckmannia syzigachne, Polypogon fugax, Alopecurus aequalis, Lolium multiflorum, Poa annua, Aegilops tataschii, Avena fatua, Alopecurus myosuroides, Bromus japonicus), broadleaf weeds (Eclipta prostrata, Amaranthus retroflexus, Rorippa indica, Myosoton aquaticum, Veronica didyma, Galium aparine, Solanum nigrum, Xanthium sibiricum, Conyza canadensis, Sesbania cannabina, Sagittaria trifolia), and Cyperus iria (Cyperus iria, Scirpus juncoides, Cyperus difformis, etc.) were sown in plastic pots (7 cm diameter) with nutrient soil and bottom holes. Crop seeds (including Oryza sativa subsp. indica, Oryza sativa subsp. japonica, Oryza sativa L. var. Glutinosa matsum, Triticum aestivum, Zea mays, Sorghum bicolor, Setaria italica, Glycine max, Gossypium hirsutum, Brassica napus, Arachis hypogaea) were sown in plastic pots (10 cm diameter) with nutrient soil and bottom holes. After sowing, the pots were placed in the growth chamber until the plants reached the 3-6 leaf stage for foliar spraying. Post-treatment, the materials were air-dried naturally and returned to the growth chamber. Results were assessed 14-21 days later.
(§4) • A: Fresh weight inhibition rate≥80% to 100%; • B: Fresh weight inhibition rate[…] to <80%; • C: Fresh weight inhibition rate≥40% to <60%; • D: Fresh weight inhibition rate≥20% to <40%; • E: Fresh weight inhibition rate<20%; • NT: Not tested.
(§5) Using the above method, the herbicidal activity and crop safety of the present compounds were compared with structurally similar known compounds (CK1, CK2, CK3, CK4: compounds 4-756, 4-759, 1-557, 1-563 from WO2012028579A1; CK5: compound 290-1 from WO2013087577A1; CK6: compound 1-129 from WO2011035874A1).
As for `CC(C)c1nnc(NC(=O)c2ccc(S(C)(=O)=O)c(S(=O)(=O)C3CCC3)c2Cl)o1` [Compound 3-544], the “Leptochloa chinensis, control efficacy grading (fresh weight inhibition rate)” value is given as “A (Fresh weight inhibition rate≥80% to 100%)”.
`CC(C)c1nnc(NC(=O)c2ccc(S(C)(=O)=O)c(S(=O)(=O)C3CCCC3)c2Cl)o1` [Compound 3-549]: the “Leptochloa chinensis, control efficacy grading (fresh weight inhibition rate)” value is “A (Fresh weight inhibition rate≥80% to 100%)”.
With `CS(=O)(=O)c1ccc(C(=O)Nc2nnc(C3CC3)o2)c(Cl)c1S(=O)(=O)CC1CC1` [Compound 3-650], the “Leptochloa chinensis, control efficacy grading (fresh weight inhibition rate)” value is “B (Fresh weight inhibition rate≥260% to <80%)”.
Same read-out and setting: in the case of `CS(=O)(=O)c1ccc(C(=O)Nc2nnc(C3CC3)o2)c(Cl)c1S(=O)(=O)C1CCCC1` [Compound 3-665] it was “A (Fresh weight inhibition rate≥80% to 100%)”.

The subject of a further series is Oryza sativa subsp. indica. The series is described as above. In kind it is in vivo. Particulars: Rate 150 g/ha.
Excerpt: as §1, §2, §3, §4, §5
For `CC(C)c1nnc(NC(=O)c2ccc(S(C)(=O)=O)c(S(=O)(=O)C3CCC3)c2Cl)o1` [Compound 3-544], the “Oryza sativa subsp. indica, grading of fresh weight inhibition rate (crop safety)” value is “E (Fresh weight inhibition rate<20%)”.
Take `CC(C)c1nnc(NC(=O)c2ccc(S(C)(=O)=O)c(S(=O)(=O)C3CCCC3)c2Cl)o1` [Compound 3-549]: the “Oryza sativa subsp. indica, grading of fresh weight inhibition rate (crop safety)” value is “E (Fresh weight inhibition rate<20%)”.
As to `CS(=O)(=O)c1ccc(C(=O)Nc2nnc(C3CC3)o2)c(Cl)c1S(=O)(=O)CC1CC1` [Compound 3-650], the “Oryza sativa subsp. indica, grading of fresh weight inhibition rate (crop safety)” value is on record as “E (Fresh weight inhibition rate<20%)”.
Take `CS(=O)(=O)c1ccc(C(=O)Nc2nnc(C3CC3)o2)c(Cl)c1S(=O)(=O)C1CCCC1` [Compound 3-665]: the “Oryza sativa subsp. indica, grading of fresh weight inhibition rate (crop safety)” value is “E (Fresh weight inhibition rate<20%)”.

The series is the same for the next values; noted with them: Rate 250 g/ha.
In the case of `C=CCS(=O)(=O)c1c(S(C)(=O)=O)ccc(C(=O)Nc2nnnn2C)c1Cl` [Compound 1-71], the “Oryza sativa subsp. indica, grading of fresh weight inhibition rate (crop safety)” value is “E (Fresh weight inhibition rate<20%)”.

The subject of a further series is Echinochloa crusgalli. The series is described as above. Format: in vivo. The following applies: Rate 250 g/ha.
Excerpt: as §1, §2, §3, §4, §5
`C=CCS(=O)(=O)c1c(S(C)(=O)=O)ccc(C(=O)Nc2nnnn2C)c1Cl` [Compound 1-71]: the “Echinochloa crusgalli, control efficacy grading (fresh weight inhibition rate)” value is given as “A (Fresh weight inhibition rate≥80% to 100%)”.

Another series concerns Oryza sativa subsp. japonica. The description is as above. Format: in vivo. Particulars: Rate 150 g/ha.
Excerpt: as §1, §2, §3, §4, §5
In the case of `CC(C)c1nnc(NC(=O)c2ccc(S(C)(=O)=O)c(S(=O)(=O)C3CCC3)c2Cl)o1` [Compound 3-544], the “Oryza sativa subsp. japonica, grading of fresh weight inhibition rate (crop safety)” value is listed as “E (Fresh weight inhibition rate<20%)”.
Still for that read-out and setting: in the case of `CC(C)c1nnc(NC(=O)c2ccc(S(C)(=O)=O)c(S(=O)(=O)C3CCCC3)c2Cl)o1` [Compound 3-549] it was “E (Fresh weight inhibition rate<20%)”; in that of `CS(=O)(=O)c1ccc(C(=O)Nc2nnc(C3CC3)o2)c(Cl)c1S(=O)(=O)CC1CC1` [Compound 3-650], “E (Fresh weight inhibition rate<20%)”; in that of `CS(=O)(=O)c1ccc(C(=O)Nc2nnc(C3CC3)o2)c(Cl)c1S(=O)(=O)C1CCCC1` [Compound 3-665], “E (Fresh weight inhibition rate<20%)”.

Still in this series, the particulars now being: Rate 250 g/ha.
Turning to `C=CCS(=O)(=O)c1c(S(C)(=O)=O)ccc(C(=O)Nc2nnnn2C)c1Cl` [Compound 1-71], the “Oryza sativa subsp. japonica, grading of fresh weight inhibition rate (crop safety)” value is recorded as “E (Fresh weight inhibition rate<20%)”.

The next series has as its system Leptochloa chinensis. The series can be described thus: Greenhouse herbicidal activity assay, post-emergence. In kind it is in vivo. The following applies: Post-emergence test, rate 150 g a.i./hm^2; grade by fresh weight inhibition rate. In a few lines: (§6)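 Weeds were sown in nutrient soil in 7 cm pots and grown in a growth chamber to the 3-6 leaf stage, then foliar-sprayed, air-dried and returned to the chamber. Fresh weight inhibition was scored 14-21 days later in bands from A (≥80% to 100%) to E (<20%).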
On to `C=CCS(=O)(=O)c1c(S(C)(=O)=O)ccc(C(=O)Nc2nnnn2C)c1Cl` [Compound 1-71], for which the “Control efficacy grade, Leptochloa chinensis” value is reported as “A (Fresh weight inhibition rate≥80% to 100%)”.
As to `CC(C)c1nnc(NC(=O)c2ccc(S(C)(=O)=O)c(S(=O)(=O)C3CCC3)c2Cl)o1` [Compound 3-544], the “Control efficacy grade, Leptochloa chinensis” value is on record as “A (Fresh weight inhibition rate≥80% to 100%)”.
For `CC(C)c1nnc(NC(=O)c2ccc(S(C)(=O)=O)c(S(=O)(=O)C3CCCC3)c2Cl)o1` [Compound 3-549], the “Control efficacy grade, Leptochloa chinensis” value is given as “A (Fresh weight inhibition rate≥80% to 100%)”.
As for `CS(=O)(=O)c1ccc(C(=O)Nc2nnc(C3CC3)o2)c(Cl)c1S(=O)(=O)CC1CC1` [Compound 3-650], the “Control efficacy grade, Leptochloa chinensis” value is given as “A (Fresh weight inhibition rate≥80% to 100%)”.
Consider `CS(=O)(=O)c1ccc(C(=O)Nc2nnc(C3CC3)o2)c(Cl)c1S(=O)(=O)C1CCCC1` [Compound 3-665], for which the “Control efficacy grade, Leptochloa chinensis” value is “A (Fresh weight inhibition rate≥80% to 100%)”.

The next series has as its system Cyperus iria. The description is as above. Format: in vivo. The following applies: Post-emergence test, rate 150 g a.i./hm^2; grade by fresh weight inhibition rate. A digest of the protocol:
as §6
Regarding `C=CCS(=O)(=O)c1c(S(C)(=O)=O)ccc(C(=O)Nc2nnnn2C)c1Cl` [Compound 1-71], the “Control efficacy grade, Cyperus iria” value is “A (Fresh weight inhibition rate≥80% to 100%)”.
For `CC(C)c1nnc(NC(=O)c2ccc(S(C)(=O)=O)c(S(=O)(=O)C3CCC3)c2Cl)o1` [Compound 3-544], the “Control efficacy grade, Cyperus iria” value is given as “A (Fresh weight inhibition rate≥80% to 100%)”.
On the same count and under the same terms, the result for `CC(C)c1nnc(NC(=O)c2ccc(S(C)(=O)=O)c(S(=O)(=O)C3CCCC3)c2Cl)o1` [Compound 3-549] reads “A (Fresh weight inhibition rate≥80% to 100%)”; that for `CS(=O)(=O)c1ccc(C(=O)Nc2nnc(C3CC3)o2)c(Cl)c1S(=O)(=O)CC1CC1` [Compound 3-650], “A (Fresh weight inhibition rate≥80% to 100%)”; that for `CS(=O)(=O)c1ccc(C(=O)Nc2nnc(C3CC3)o2)c(Cl)c1S(=O)(=O)C1CCCC1` [Compound 3-665], “B (Fresh weight inhibition rate≥260% to <80%)”.

A further series has as its system Echinochloa crusgalli. The description is as above. Format: in vivo. The following applies: Post-emergence test, rate 150 g a.i./hm^2; grade by fresh weight inhibition rate. In a few lines: as §6
As for `C=CCS(=O)(=O)c1c(S(C)(=O)=O)ccc(C(=O)Nc2nnnn2C)c1Cl` [Compound 1-71], the “Control efficacy grade, Echinochloa crusgalli” value was “A (Fresh weight inhibition rate≥80% to 100%)”.
Still for that read-out and setting: in the case of `CC(C)c1nnc(NC(=O)c2ccc(S(C)(=O)=O)c(S(=O)(=O)C3CCC3)c2Cl)o1` [Compound 3-544] it was “B (Fresh weight inhibition rate≥260% to <80%)”.
On the same count and under the same terms, in the case of `CS(=O)(=O)c1ccc(C(=O)Nc2nnc(C3CC3)o2)c(Cl)c1S(=O)(=O)CC1CC1` [Compound 3-650] it was “B (Fresh weight inhibition rate≥260% to <80%)”.

In a further series the test system is Digitaria sanguinalis. Described as above. Format: in vivo. Particulars: Post-emergence test, rate 150 g a.i./hm^2; grade by fresh weight inhibition rate. In a few lines:
as §6
Take `C=CCS(=O)(=O)c1c(S(C)(=O)=O)ccc(C(=O)Nc2nnnn2C)c1Cl` [Compound 1-71]: the “Control efficacy grade, Digitaria sanguinalis” value was “A (Fresh weight inhibition rate≥80% to 100%)”.
Still for that read-out and setting: in the case of `CS(=O)(=O)c1ccc(C(=O)Nc2nnc(C3CC3)o2)c(Cl)c1S(=O)(=O)CC1CC1` [Compound 3-650] it was “A (Fresh weight inhibition rate≥80% to 100%)”.

The test system of a further series is Eclipta prostrata. The description is as above. Particulars: Post-emergence test, rate 150 g a.i./hm^2; grade by fresh weight inhibition rate. Format: in vivo. In a few lines:
as §6
On to `C=CCS(=O)(=O)c1c(S(C)(=O)=O)ccc(C(=O)Nc2nnnn2C)c1Cl` [Compound 1-71], for which the “Control efficacy grade, Eclipta prostrata” value is on record as “A (Fresh weight inhibition rate≥80% to 100%)”.
As for `CC(C)c1nnc(NC(=O)c2ccc(S(C)(=O)=O)c(S(=O)(=O)C3CCC3)c2Cl)o1` [Compound 3-544], the “Control efficacy grade, Eclipta prostrata” value is “A (Fresh weight inhibition rate≥80% to 100%)”.
On the same count and under the same terms, in the case of `CC(C)c1nnc(NC(=O)c2ccc(S(C)(=O)=O)c(S(=O)(=O)C3CCCC3)c2Cl)o1` [Compound 3-549] it was “A (Fresh weight inhibition rate≥80% to 100%)”; in that of `CS(=O)(=O)c1ccc(C(=O)Nc2nnc(C3CC3)o2)c(Cl)c1S(=O)(=O)CC1CC1` [Compound 3-650], “A (Fresh weight inhibition rate≥80% to 100%)”; in that of `CS(=O)(=O)c1ccc(C(=O)Nc2nnc(C3CC3)o2)c(Cl)c1S(=O)(=O)C1CCCC1` [Compound 3-665], “A (Fresh weight inhibition rate≥80% to 100%)”.

These data come from patent publication US20250223268A1, “4-Methylsulfonylbenzamide Compound, Preparation Method, Herbicidal Composition And Use” (Jiangsu Flag Chemical Industry Co., Ltd., priority 2022, published 2025).
